Measurements: PMC8213057, “Targeting ALK2: An Open Science Approach to Developing Therapeutics for the Treatment of Diffuse Intrinsic Pontine Glioma” (Journal of Medicinal Chemistry, 2020)
Values joined by “and” are separate entries in the source; they are usually repeats but may differ in a detail not shown here. Identical values can stand only once.

Experiments:
[1] = human liver microsomal stability assay; assay type: in vitro ADME; details: human, microsomes, pH 7.4, human liver microsomes, 60 min, 37 °C, read-out: HLM % Remaining at 1h
ALK1/ACVRL1 = biological target: T1, ALK1/ACVRL1 (Homo sapiens, UniProt P37023); test: 375-member kinase panel; assay type: biochemical; details: Run 1, Run 2; for % enzyme activity: 1 μM
T1 construct: purchased Reaction Biology Corporation

MINK/MINK1 = biological target: T2, MINK/MINK1 (Homo sapiens, UniProt Q8N4C8); test: 375-member kinase panel; assay type: biochemical; details: Run 1, Run 2; for % enzyme activity: 1 μM; for remaining activity at 1 µM: read-out: % enzyme activity, 1 μM
T2 construct: purchased Reaction Biology Corporation

CDK17/cyclin Y (PCTK2) = CDK17/cyclin Y (PCTK2) (Homo sapiens, UniProt Q00537); details: 1 μM; Run 1, Run 2
BMX/ETK = biological target: T3, BMX/ETK (Homo sapiens, UniProt P51813); test: biochemical; details: read-out: % enzyme activity, 1 μM; Run 1, Run 2
T3 sequence (P51813 1-675): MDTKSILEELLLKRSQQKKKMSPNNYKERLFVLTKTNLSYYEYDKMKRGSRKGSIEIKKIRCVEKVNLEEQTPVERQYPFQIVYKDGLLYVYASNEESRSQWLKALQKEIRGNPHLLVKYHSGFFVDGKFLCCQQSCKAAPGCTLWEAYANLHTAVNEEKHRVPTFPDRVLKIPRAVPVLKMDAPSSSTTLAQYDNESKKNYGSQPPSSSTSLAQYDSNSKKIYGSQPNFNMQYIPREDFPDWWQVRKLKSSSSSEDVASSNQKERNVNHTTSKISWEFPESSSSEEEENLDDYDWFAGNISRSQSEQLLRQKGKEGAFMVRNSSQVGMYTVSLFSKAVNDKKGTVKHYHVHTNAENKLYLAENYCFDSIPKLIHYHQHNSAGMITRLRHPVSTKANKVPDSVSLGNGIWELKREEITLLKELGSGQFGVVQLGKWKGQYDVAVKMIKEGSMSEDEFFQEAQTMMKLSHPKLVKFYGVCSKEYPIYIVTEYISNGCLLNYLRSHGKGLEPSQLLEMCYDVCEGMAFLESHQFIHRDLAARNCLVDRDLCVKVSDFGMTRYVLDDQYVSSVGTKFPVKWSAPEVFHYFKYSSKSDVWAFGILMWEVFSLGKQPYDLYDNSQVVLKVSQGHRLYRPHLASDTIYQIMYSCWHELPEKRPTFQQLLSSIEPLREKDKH

DRAK1/STK17A = biological target: T4, DRAK1/STK17A (Homo sapiens, UniProt Q9UEE5); test: biochemical; details: read-out: % enzyme activity, 1 μM; Run 1, Run 2
T4 sequence (Q9UEE5 1-414): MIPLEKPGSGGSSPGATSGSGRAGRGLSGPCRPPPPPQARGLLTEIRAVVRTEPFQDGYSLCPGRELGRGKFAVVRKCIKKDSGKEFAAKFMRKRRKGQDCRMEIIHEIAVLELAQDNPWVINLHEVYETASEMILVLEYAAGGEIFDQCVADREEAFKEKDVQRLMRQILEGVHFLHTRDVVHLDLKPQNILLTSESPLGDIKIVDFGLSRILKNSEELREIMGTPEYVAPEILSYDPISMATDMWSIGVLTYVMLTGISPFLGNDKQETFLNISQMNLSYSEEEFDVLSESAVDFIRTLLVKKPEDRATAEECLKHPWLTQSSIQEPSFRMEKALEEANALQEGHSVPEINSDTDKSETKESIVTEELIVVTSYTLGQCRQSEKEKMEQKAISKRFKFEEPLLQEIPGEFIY

IRAK4 = biological target: T5, IRAK4 (Homo sapiens, UniProt Q9NWZ3); test: biochemical; details: read-out: % enzyme activity, 1 μM; Run 1, Run 2
T5 sequence (Q9NWZ3 1-460): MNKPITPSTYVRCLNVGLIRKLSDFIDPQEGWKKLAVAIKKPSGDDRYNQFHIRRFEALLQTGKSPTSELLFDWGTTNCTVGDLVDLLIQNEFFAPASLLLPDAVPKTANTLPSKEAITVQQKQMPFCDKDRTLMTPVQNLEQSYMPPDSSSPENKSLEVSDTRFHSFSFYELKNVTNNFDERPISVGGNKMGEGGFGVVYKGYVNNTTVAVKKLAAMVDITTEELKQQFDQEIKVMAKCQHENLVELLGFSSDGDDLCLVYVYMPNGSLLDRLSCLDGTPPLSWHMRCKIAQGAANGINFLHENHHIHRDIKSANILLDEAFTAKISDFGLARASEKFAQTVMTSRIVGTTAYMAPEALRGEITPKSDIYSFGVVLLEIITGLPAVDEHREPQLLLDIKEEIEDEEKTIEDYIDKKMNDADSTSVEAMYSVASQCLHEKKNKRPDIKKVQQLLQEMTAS

KSR2 = biological target: T6, KSR2 (Homo sapiens, UniProt Q6VAB6); test: biochemical; details: read-out: % enzyme activity, 1 μM; Run 1, Run 2
T6 sequence (Q6VAB6 1-950): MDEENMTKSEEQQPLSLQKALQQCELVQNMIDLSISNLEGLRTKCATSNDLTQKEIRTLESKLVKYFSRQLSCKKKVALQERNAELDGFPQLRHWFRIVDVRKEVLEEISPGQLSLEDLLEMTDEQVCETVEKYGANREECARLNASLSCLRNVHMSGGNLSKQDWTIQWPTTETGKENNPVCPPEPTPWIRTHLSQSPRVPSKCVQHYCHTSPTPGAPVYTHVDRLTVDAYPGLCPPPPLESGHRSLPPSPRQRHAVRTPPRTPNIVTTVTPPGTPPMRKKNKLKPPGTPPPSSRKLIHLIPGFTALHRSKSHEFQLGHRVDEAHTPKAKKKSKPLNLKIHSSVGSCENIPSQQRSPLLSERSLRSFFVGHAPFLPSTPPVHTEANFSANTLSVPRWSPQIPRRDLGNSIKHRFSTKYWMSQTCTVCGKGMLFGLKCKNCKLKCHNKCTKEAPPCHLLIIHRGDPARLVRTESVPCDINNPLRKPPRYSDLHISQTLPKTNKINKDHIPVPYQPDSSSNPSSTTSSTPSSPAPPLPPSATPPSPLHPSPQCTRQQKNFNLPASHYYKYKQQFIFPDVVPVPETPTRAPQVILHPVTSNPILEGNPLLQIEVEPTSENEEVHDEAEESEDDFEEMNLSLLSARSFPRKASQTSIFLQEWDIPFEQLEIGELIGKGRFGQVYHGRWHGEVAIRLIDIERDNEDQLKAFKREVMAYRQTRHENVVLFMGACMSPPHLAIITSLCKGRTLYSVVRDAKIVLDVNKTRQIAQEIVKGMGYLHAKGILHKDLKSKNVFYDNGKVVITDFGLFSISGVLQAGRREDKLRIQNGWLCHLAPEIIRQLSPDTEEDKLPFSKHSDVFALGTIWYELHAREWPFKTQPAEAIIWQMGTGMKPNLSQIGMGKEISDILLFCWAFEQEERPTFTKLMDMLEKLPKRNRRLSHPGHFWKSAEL

T1 sequence (P37023 22-503): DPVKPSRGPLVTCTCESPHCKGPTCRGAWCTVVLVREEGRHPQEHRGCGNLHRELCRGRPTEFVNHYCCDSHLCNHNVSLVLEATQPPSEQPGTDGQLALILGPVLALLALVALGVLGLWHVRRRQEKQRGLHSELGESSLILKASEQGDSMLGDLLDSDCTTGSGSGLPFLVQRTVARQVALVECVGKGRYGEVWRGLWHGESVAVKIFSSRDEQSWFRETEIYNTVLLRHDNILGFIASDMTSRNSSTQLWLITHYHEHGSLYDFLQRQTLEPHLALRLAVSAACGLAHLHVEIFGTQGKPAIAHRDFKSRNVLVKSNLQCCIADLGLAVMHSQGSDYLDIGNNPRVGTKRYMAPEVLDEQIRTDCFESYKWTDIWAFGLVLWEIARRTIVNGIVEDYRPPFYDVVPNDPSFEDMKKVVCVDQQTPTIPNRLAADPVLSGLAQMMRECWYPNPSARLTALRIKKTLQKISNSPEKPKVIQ
T2 sequence (Q8N4C8 whole entry): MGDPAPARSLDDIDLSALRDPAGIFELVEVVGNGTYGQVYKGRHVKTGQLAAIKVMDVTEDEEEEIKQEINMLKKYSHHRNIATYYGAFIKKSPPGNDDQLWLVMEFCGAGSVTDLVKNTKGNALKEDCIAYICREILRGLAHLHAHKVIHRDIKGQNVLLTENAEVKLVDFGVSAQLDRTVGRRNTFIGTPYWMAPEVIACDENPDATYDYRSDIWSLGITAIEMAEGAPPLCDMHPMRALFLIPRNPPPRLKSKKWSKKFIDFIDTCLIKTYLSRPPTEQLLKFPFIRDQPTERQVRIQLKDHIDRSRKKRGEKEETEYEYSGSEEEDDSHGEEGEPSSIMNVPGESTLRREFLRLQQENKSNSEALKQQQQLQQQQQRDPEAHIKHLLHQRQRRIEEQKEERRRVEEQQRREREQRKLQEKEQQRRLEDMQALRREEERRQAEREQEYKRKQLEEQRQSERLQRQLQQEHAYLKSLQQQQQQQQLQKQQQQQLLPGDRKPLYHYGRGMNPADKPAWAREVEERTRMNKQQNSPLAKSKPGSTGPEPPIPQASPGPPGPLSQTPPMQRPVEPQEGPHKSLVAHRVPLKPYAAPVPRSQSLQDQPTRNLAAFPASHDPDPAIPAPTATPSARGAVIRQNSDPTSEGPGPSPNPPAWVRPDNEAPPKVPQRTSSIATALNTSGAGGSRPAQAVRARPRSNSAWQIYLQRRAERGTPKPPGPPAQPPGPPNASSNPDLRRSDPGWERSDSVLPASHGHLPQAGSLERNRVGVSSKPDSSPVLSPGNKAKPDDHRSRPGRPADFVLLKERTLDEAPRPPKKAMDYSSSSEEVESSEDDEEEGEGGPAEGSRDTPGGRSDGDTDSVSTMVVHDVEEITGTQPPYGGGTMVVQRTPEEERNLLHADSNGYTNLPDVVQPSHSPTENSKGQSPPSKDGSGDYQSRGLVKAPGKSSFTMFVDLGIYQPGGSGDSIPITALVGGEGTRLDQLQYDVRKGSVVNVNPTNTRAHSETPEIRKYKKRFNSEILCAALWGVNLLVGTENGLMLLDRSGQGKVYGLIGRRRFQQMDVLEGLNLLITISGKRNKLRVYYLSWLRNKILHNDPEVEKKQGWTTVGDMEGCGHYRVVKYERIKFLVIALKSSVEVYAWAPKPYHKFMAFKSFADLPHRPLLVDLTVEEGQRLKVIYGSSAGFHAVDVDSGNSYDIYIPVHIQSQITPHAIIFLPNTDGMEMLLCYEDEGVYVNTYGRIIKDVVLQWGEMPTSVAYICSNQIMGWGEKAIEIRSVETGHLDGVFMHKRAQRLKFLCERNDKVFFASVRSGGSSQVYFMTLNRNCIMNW
Chain of CDK17/cyclin Y (PCTK2) (Q00537 whole entry): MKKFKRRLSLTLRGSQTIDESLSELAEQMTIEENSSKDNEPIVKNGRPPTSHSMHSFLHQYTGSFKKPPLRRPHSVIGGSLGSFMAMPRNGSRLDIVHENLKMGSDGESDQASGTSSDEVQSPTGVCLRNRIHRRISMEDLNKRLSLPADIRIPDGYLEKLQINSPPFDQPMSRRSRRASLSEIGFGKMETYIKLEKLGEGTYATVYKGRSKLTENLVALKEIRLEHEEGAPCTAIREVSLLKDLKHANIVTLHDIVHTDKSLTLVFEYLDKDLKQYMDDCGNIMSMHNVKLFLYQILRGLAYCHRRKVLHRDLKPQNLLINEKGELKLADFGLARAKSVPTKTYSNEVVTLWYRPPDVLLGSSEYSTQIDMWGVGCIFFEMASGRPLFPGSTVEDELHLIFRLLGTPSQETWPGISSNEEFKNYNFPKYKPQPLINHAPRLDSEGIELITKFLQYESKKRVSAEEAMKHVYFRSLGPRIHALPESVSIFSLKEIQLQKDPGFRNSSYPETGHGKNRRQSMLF
Chain of CDK17/cyclin Y (PCTK2) (Q8ND76 whole entry partner): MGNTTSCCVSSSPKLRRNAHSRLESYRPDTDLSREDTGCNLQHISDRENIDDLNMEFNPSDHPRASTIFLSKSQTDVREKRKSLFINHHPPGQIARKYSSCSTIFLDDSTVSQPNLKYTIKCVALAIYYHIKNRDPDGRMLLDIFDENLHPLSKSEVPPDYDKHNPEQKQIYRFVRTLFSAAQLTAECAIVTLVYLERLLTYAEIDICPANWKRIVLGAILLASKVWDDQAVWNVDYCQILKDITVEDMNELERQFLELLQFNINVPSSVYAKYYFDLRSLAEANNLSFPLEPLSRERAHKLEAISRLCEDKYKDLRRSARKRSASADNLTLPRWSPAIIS

Row | SMILES | % enzyme activity at 1 μM (TGFBR2) | remaining at 1 h, 1 μM [1] [%] | % enzyme activity (ALK1/ACVRL1) [%] | % enzyme activity (MINK/MINK1) [%] | remaining activity at 1 µM (MINK/MINK1) [%] | % enzyme activity (CDK17/cyclin Y (PCTK2)) [%] | remaining activity at 1 µM (BMX/ETK) [%] | remaining activity at 1 µM (DRAK1/STK17A) [%] | remaining activity at 1 µM (IRAK4) [%] | remaining activity at 1 µM (KSR2) [%] | remaining activity at 1 µM (ALK1/ACVRL1; read-out: % enzyme activity, 1 μM) [%]
1 | COc1cc(-c2cncc(-c3ccc(N4CCN(C)CC4)cc3)c2C)cc(F)c1C(N)=O [Compound 26a, 2-Fluoro-6-methoxy-4-(4-methyl-5-(4-(4-methylpiperazin-1-yl)phenyl)pyridin-3-yl)benzamide] | 103% and 97.4% | 78 | 2.65 | 22.65 | 24.1 | 95.45 | 103 | 96.4 | 78.5 | 96.9 | –
2 | COc1cc(-c2cncc(-c3ccc(N4C[C@@H](C)N(C)[C@@H](C)C4)cc3)c2C)cc(F)c1C(N)=O [Compound 26c, 2-Fluoro-6-methoxy-4-(4-methyl-5-(4-((3R,5S)-3,4,5-trimethylpiperazin-1-yl)phenyl)pyridin-3-yl)benzamide] | 106% and 105% | 47.5 | 4.38 | 29.65 | 30.2 | 99.91 | 102 | 96.6 | 84.9 | 98.5 | 4.67
